Laboratory results published in ChEMBL document CHEMBL3232773, “Peniphenones A-D from the mangrove fungus Penicillium dipodomyicola HN4-3A as inhibitors of Mycobacterium tuberculosis phosphatase MptpB” (J Nat Prod, 2014).

Assay: Inhibition of Mycobacterium tuberculosis H37Rv full-length PTPB expressed in Escherichia coli […] using 6,8-difluoromethylumbelliferyl phosphate as substrate assessed as inhibition of substrate hydrolysis

Row | Compound | IC50 [nM]
1 | CC(=O)c1cc(C)c(O)c(Cc2c(O)cc(-c3ccc(O)c(O)c3)oc2=O)c1O | 160
2 | CC(=O)c1cc(C)c(O)c(CC2=C(C)C(=O)C(O)=C(C)C2=O)c1O | 1370
3 | SODIUM ORTHOVANAD | 82
